Target: T1, Pf2001Δ60 (recombinant thermostable lipase Pf2001) (Pyrococcus furiosus, UniProt Q8TZJ1)
T1 construct: expressed in E. coli BL21 (DE3) pLysS; crude extract supernatant
Assay: fluorescence release of 4-methylumbelliferone (ex […] nm, em […] nm)
Assay type: biochemical
Conditions: crude extract of E. coli expressing the enzyme; pH 7.0, 50 mM sodium phosphate, 0.1% gum arabic, 70 °C; soluble enzyme (also measured immobilised)

T1 sequence (Q8TZJ1 entry or part of it, stated change not applied): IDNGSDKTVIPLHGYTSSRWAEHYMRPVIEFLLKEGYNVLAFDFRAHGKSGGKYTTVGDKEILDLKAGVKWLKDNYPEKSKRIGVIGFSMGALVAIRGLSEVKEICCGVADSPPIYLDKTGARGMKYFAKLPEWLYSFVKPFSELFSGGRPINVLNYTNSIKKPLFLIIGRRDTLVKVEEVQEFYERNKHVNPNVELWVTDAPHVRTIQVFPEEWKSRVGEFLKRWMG

SMILES: CCCCCCC(=O)Oc1ccc2c(C)cc(=O)oc2c1 [4-Methylumbelliferyl-heptanoate]
- fluorescence release of 4-methylumbelliferone (ex 323 nm, em 448 nm): Enzyme activity was measured according to the method described by Prim et al.
